Test results: patent US20190127366A1 (LifeSci Pharmaceuticals, Inc., priority 2015, published 2019)

Tests used:
[1] = target: T1, human complement factor D (Homo sapiens, UniProt P00746); assay: In vitro enzyme inhibition (Z-Lys-SBzl/DTNB absorbance assay); format: biochemical; conditions: Complement Factor D (R&D Systems), substrate Z-Lys-SBzl, A405 nm; read-out: CFD IC50
T1 construct: purchased R&D Systems 1824-SE
Outline: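 Factor D (6.25 ng/μL before addition) preincubated 5 min RT with compound (8 points from 50 μM, 6-fold, 0.5% DMSO final) in 50 mM Tris/HCl pH 7.5, 1 M NaCl, then Z-Lys-SBzl/DTNB added (200 μM each before addition). A405 read kinetically every 30 s for 60 min; IC50 from variable-slope fit, controls with and without enzyme.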

[2] = tested on: alternative pathway (AP) hemolytic activity; assay: AP hemolysis inhibition assay; format: cell-based; conditions: Erythrocyte, 1 h; Normal Human Serum, chicken or rabbit erythrocytes, 60 min at 37° C., OD 414 nm
Protocol: The ability of the compounds disclosed herein to inhibit alternative pathway (AP) hemolytic activity was determined. Red blood cells (RBC), chicken or rabbit erythrocyctes (SbjBio), were washed three time using assay buffer containing 0.1% gelatin, 5 mM Veronal, 145 mM NaCl, 0.025% NaN3, 10 mM Mg-EGTA pH 7.3. In 100 μL reaction system, 1300 to 1500 ng/μL final concentration of Normal Human Serum (CompTech) was incubated with compound for 15 min at 37° C. Then 2×10^6 cells/well of chicken or rabbit erythrocytes in assay buffer were added and incubated for an additional 60 min at 37° C. Positive control (100% lysis) consists of serum and RBC, and negative control (0% lysis) consists of assay buffer and RBC only. Samples were centrifuged at 2000 g for 5 min, and supernatants collected. Optical density of the supernatant is monitored at 414 nm using Synergy 2 (BioTek). Percentage lysis in each sample is calculated relative to positive control (100% lysis).
Table 3 discloses the inhibitory activity of the compounds provided herein in the hemolysis assay.

T1 sequence (P00746 26-253): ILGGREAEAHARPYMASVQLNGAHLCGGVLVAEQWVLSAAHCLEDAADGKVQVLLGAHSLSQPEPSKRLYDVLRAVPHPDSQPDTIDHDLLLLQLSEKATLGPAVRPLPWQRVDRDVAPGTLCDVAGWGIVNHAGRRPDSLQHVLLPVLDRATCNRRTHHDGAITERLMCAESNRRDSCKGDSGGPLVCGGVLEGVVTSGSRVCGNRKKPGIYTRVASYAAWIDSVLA

Structure (SMILES)	IC50 [1] [nM]	EC50 [2] [nM]
NC(=O)c1nn(CC(=O)N2[C@@H]3CC[C@@H](C3)[C@H]2C(=O)Nc2cccc(Cl)n2)c2ccccc12 [Example 1, 1-(2-((1R,3S,4S)-3-((6-chloropyridin-2-yl)carbamoyl)-2-azabicyclo[2.2.1]heptan-2-yl)-2-oxoethyl)-1H-indazole-3-carboxamide]	< 100	100 to 1000
NC(=O)c1nn(CC(=O)N2C3CCC(C3)[C@H]2C(=O)Nc2cccc(Cl)n2)c2ccccc12 (stereo partly drawn) [Example 10, 1-(2-((3S)-3-((6-chloropyridin-2-yl)carbamoyl)-2-azabicyclo[2.2.1]heptan-2-yl)-2-oxoethyl)-1H-indazole-3-carboxamide]	< 100	100 to 1000
CC(O)c1nn(CC(=O)N2[C@H](C(=O)Nc3cccc(Cl)n3)C[C@@H]3CCC[C@@H]32)c2ccccc12 (stereo partly drawn) [Example 181, (2S,3aS,6aS)-N-(6-chloropyridin-2-yl)-1-(2-(3-(1-hydroxyethyl)-1H-indazol-1-yl)acetyl)octahydrocyclopenta[b]pyrrole-2-carboxamide]	1000 to 10000	–
CC(=O)c1nn(CC(=O)N2[C@H](C(=O)Nc3cccc(Cl)n3)C[C@@H]3CCC[C@@H]32)c2ccc(F)cc12 [Example 183, (2S,3aS,6aS)-1-(2-(3-acetyl-5-fluoro-1H-indazol-1-yl)acetyl)-N-(6-chloropyridin-2-yl)octahydrocyclopenta[b]pyrrole-2-carboxamide]	1000 to 10000	–
NC(=O)c1nn(CC(=O)N2CC[C@H]2C(=O)NCc2cccc(Cl)c2F)cc1Br [Example 187, (S)-4-bromo-1-(2-(2-((3-chloro-2-fluorobenzyl)carbamoyl)azetidin-1-yl)-2-oxoethyl)-1H-pyrazole-3-carboxamide]	1000 to 10000	–
NC(=O)c1nc(CC(=O)N2CC[C@H]2C(=O)NCc2cccc(Cl)c2F)n2ccccc12 [Example 191, (S)-3-(2-(2-((3-chloro-2-fluorobenzyl)carbamoyl)azetidin-1-yl)-2-oxoethyl)imidazo[1,5-a]pyridine-1-carboxamide]	100 to 1000	–
CC(=O)c1nc(CC(=O)N2CC[C@H]2C(=O)NCc2cccc(Cl)c2F)n2ccccc12 [Example 192, (S)-1-(2-(1-acetylimidazo[1,5-a]pyridin-3-yl)acetyl)-N-(3-chloro-2-fluorobenzyl)azetidine-2-carboxamide]	1000 to 10000	–
CC(O)c1nn(CC(=O)N2CC[C@H]2C(=O)NCc2cccc(Cl)c2F)c2ccccc12 (stereo partly drawn) [Example 193, (2S)-N-(3-chloro-2-fluorobenzyl)-1-(2-(3-(1-hydroxyethyl)-1H-indazol-1-yl)acetyl)azetidine-2-carboxamide]	1000 to 10000	–
NC(=O)c1nn(CC(=O)N2[C@H](CO)C[C@H]2C(=O)NCc2cccc(Cl)c2F)c2ccccc12 [Example 197, 1-(2-(trans-2-((3-chloro-2-fluorobenzyl)carbamoyl)-4-(hydroxymethyl)azetidin-1-yl)-2-oxoethyl)-1H-indazole-3-carboxamide]	1000 to 10000	–
NC(=O)c1nn(CC(=O)N2[C@@H]3CC[C@@H](C3)[C@H]2C(=O)NCc2cc3c(Cl)c[nH]c3cc2F)c2ccccc12 [Example 198, 1-(2-((1R,3S,4S)-3-(((3-chloro-6-fluoro-1H-indol-5-yl)methyl)carbamoyl)-2-azabicyclo[2.2.1]heptan-2-yl)-2-oxoethyl)-1H-indazole-3-carboxamide]	> 10000	–
NC(=O)c1nn(CC(=O)N2[C@H](C(=O)NCc3cccc(Cl)c3F)C[C@@H]3CCC[C@@H]32)c2ccc(C3CC3)cc12 [Example 199, 1-(2-((2S,3aS,6aS)-2-((3-chloro-2-fluorobenzyl)carbamoyl)hexahydrocyclopenta[b]pyrrol-1(2H)-yl)-2-oxoethyl)-5-cyclopropyl-1H-indazole-3-carboxamide]	100 to 1000	–

Further lines, with some results ahead:

IC50 [1] [nM]	Structure (SMILES)	EC50 [2] [nM]
100 to 1000	NC(=O)c1nn(CC(=O)N2C3CCC(C3)[C@H]2C(=O)Nc2cccc(Cl)n2)c2ccc(C3CC3)cc12 (stereo partly drawn) [Example 11, 1-(2-((3S)-3-((6-chloropyridin-2-yl)carbamoyl)-2-azabicyclo[2.2.1]heptan-2-yl)-2-oxoethyl)-5-cyclopropyl-1H-indazole-3-carboxamide]	1000 to 10000
100 to 1000	NC(=O)c1nn(CC(=O)N2[C@@H]3CC[C@@H](C3)[C@H]2C(=O)Nc2cccc(Cl)c2F)c2ccccc12 [Example 18, 1-(2-((1R,3S,4S)-3-((3-chloro-2-fluorophenyl)carbamoyl)-2-azabicyclo[2.2.1]heptan-2-yl)-2-oxoethyl)-1H-indazole-3-carboxamide]	1000 to 10000
100 to 1000	NC(=O)c1nn(CC(=O)N2CCCC[C@H]2C(=O)Nc2cccc(Cl)n2)c2ccccc12 [Example 21, (S)-1-(2-(2-((6-chloropyridin-2-yl)carbamoyl)piperidin-1-yl)-2-oxoethyl)-1H-indazole-3-carboxamide]	1000 to 10000
100 to 1000	NC(=O)c1nn(CC(=O)N2[C@@H]3CC[C@@H](C3)[C@H]2C(=O)NCc2cccc(Cl)c2F)c2ccccc12 [Example 38, 1-(2-((1R,3S,4S)-3-((3-chloro-2-fluorobenzyl)carbamoyl)-2-azabicyclo[2.2.1]heptan-2-yl)-2-oxoethyl)-1H-indazole-3-carboxamide]	1000 to 10000
100 to 1000	NC(=O)c1nn(CC(=O)N2[C@@H]3CC[C@@H](C3)[C@H]2C(=O)Nc2cccc(Cl)n2)c2ccc(C3CC3)cc12 [Example 56, 1-(2-((1R,3S,4S)-3-((6-chloropyridin-2-yl)carbamoyl)-2-azabicyclo[2.2.1]heptan-2-yl)-2-oxoethyl)-5-cyclopropyl-1H-indazole-3-carboxamide 2,2,2-trifluoroacetate]	100 to 1000
< 100	NC(=O)c1nn(CC(=O)N2[C@@H]3CC[C@@H](C3)[C@H]2C(=O)Nc2cncc(Cl)n2)c2ccccc12 [Example 59, 1-(2-((1R,3S,4S)-3-((6-chloropyrazin-2-yl)carbamoyl)-2-azabicyclo[2.2.1]heptan-2-yl)-2-oxoethyl)-1H-indazole-3-carboxamide]	100 to 1000
100 to 1000	CC(=O)c1nn(CC(=O)N2[C@H](C(=O)Nc3cccc(Cl)n3)C[C@@H]3CCC[C@@H]32)c2ccc(Cl)cc12 [Example 178, (2S,3aS,6aS)-1-(2-(3-acetyl-5-chloro-1H-indazol-1-yl)acetyl)-N-(6-chloropyridin-2-yl)octahydrocyclopenta[b]pyrrole-2-carboxamide]	–
100 to 1000	CC(=O)c1nn(CC(=O)N2[C@H](C(=O)Nc3cccc(Cl)n3)C[C@@H]3CCC[C@@H]32)c2ccccc12 [Example 180, (2S,3aS,6aS)-1-(2-(3-acetyl-1H-indazol-1-yl)acetyl)-N-(6-chloropyridin-2-yl)octahydrocyclopenta[b]pyrrole-2-carboxamide]	–
100 to 1000	NC(=O)c1nn(CC(=O)N2[C@H](C(=O)Nc3cccc(Cl)n3)C[C@@H]3CCC[C@@H]32)c2cc(Cl)ccc12 [Example 182, 6-chloro-1-(2-((2S,3aS,6aS)-2-((6-chloropyridin-2-yl)carbamoyl)hexahydrocyclopenta[b]pyrrol-1(2H)-yl)-2-oxoethyl)-1H-indazole-3-carboxamide]	–
100 to 1000	NC(=O)n1cc(CC(=O)N2CC[C@H]2C(=O)NCc2cccc(Cl)c2F)c2ccccc21 [Example 186, (S)-3-(2-(2-((3-chloro-2-fluorobenzyl)carbamoyl)azetidin-1-yl)-2-oxoethyl)-1H-indole-1-carboxamide]	–
